Laboratory results: the Deep4Chem optical property database

Experiment: photoluminescence quantum yield (fraction); solvent given as SMILES

With CCCCc1ccc(-n2c3c4cc(F)ccc4nc(-c4ccc(OC)cc4)c3c3c2c2c(-c4ccc(OC)cc4)nc4ccc(F)cc4c2n3-c2ccc(CCCC)cc2)cc1 the photoluminescence quantum yield (in ClC(Cl)Cl) was 0.19.
CC(=O)c1c2c(cc3c(N(C)C)cccc13)CCC2 showed a photoluminescence quantum yield (in C1CCCCC1) of 0.28, a photoluminescence quantum yield (in C1CCOC1) of 0.39 and a photoluminescence quantum yield (in C1COCCO1) of 0.44. The photoluminescence quantum yield (in CC#N) was 0.23, the photoluminescence quantum yield (in CCO) was 0.01 and the photoluminescence quantum yield (in CS(C)=O) was 0.48. The photoluminescence quantum yield (in Cc1ccccc1) was 0.47, the photoluminescence quantum yield (in ClC(Cl)Cl) was 0.4 and the photoluminescence quantum yield (in ClCCl) was 0.6.
With COc1cc(C(=O)O)ccc1O the photoluminescence quantum yield (in O) was 0.03.
For CC(C)Nc1cc2c(cc1F)c(=O)c1cc(F)c(NC(C)C)cc1n2C(C)C, the photoluminescence quantum yield (in CCO) was 0.32.
In the case of N#C/C(=C\c1ccc(C(F)(F)F)cc1)c1nc(-c2ccc(Cl)cc2)cs1, the photoluminescence quantum yield (in CC#N) is reported as 0.057.
CC1=c2c3c4cccc5cccc(c=3c(C)[n+]2[B-](F)(F)n2c(C)c3cc6c(-c7ccccc7)c7c(c(-c8ccccc8)c6cc3c21)-c1cccc2cccc-7c12)c54 showed a photoluminescence quantum yield (in ClCCl) of 0.7.
N=c1oc2cccc3c4c(-c5ccccc5)oc5cccc(c(c1-c1ccccc1)c23)c54 showed a photoluminescence quantum yield (in ClC(Cl)Cl) of 0.04.
C=Cc1cc2ccc(OC(=O)c3ccccc3)cc2oc1=O gave a photoluminescence quantum yield (in CC#N) of 0.23.
Molecule F[B-]1(F)n2cccc2C(c2ccccc2)=C2C=CC=[N+]21 has a photoluminescence quantum yield (in Cc1ccccc1) of 0.053 and a photoluminescence quantum yield (in ClCCl) of 0.74.
For CCn1c(-c2ccc(-c3ccc4c(c3)C(c3ccccc3)(c3ccccc3)c3ccccc3-4)cc2)c(-c2ccc3ccccc3c2)c(-c2ccc3ccccc3c2)c1-c1ccc(-c2ccc3c(c2)C(c2ccccc2)(c2ccccc2)c2ccccc2-3)cc1, the photoluminescence quantum yield (in CCOC(C)=O) was 0.99.
Work on COc1ccc(C2=[N+]3C(=Nc4c(-c5ccc6ccccc6c5)cc(-c5ccc(OC)cc5)n4[B-]3(F)F)C(c3ccc4ccccc4c3)=C2)cc1 yielded a photoluminescence quantum yield (in ClCCl) of 0.34.
CCCCC(CC)CN1C(=O)C2=C(c3ccc(-c4ccc(C5=C6C(C)=CC(C)=[N+]6[B-](F)(F)n6c(C)cc(C)c65)cc4)s3)N(CC(CC)CCCC)C(=O)C2=C1c1cccs1 (stereo not drawn) gave a photoluminescence quantum yield (in Cc1ccccc1) of 0.57.
Molecule Cc1ccc(N2C(c3ccccc3N)=NC(c3ccccc3)C2c2ccccc2)cc1 (stereo not drawn) has a photoluminescence quantum yield (in Cc1ccccc1) of 0.009.
For COc1cc(-c2nc3c4cccnc4c4ncccc4c3[nH]2)c(OC)cc1/C=C/c1nc2ccccc2[nH]1, the photoluminescence quantum yield (in C1CCOC1) was 0.75, the photoluminescence quantum yield (in CC#N) was 0.43 and the photoluminescence quantum yield (in CO) was 0.21. For the same molecule, the photoluminescence quantum yield (in ClCCl) was 0.62.
With F[B-]1(F)Oc2ccccc2-c2nc(-c3ccccc3)c3ccccc3[n+]21 the photoluminescence quantum yield (in Cc1ccccc1) was 0.013.
O=P1(c2ccccc2)c2cc(N3c4ccccc4Oc4ccccc43)ccc2-c2ccc(N3c4ccccc4Oc4ccccc43)cc21 showed a photoluminescence quantum yield (in Cc1ccccc1) of 0.47 and a photoluminescence quantum yield (in c1ccc2c(c1)c1ccccc1n2-c1ccc(-c2ccc(-n3c4ccccc4c4ccccc43)cc2)cc1) of 0.41.
In the case of c1ccc(-c2c3c(nc4ccccc24)-c2cc4c(cc2CC3)-c2nc3ccccc3c(-c3ccccc3)c2CC4)cc1, the photoluminescence quantum yield (in ClC(Cl)Cl) is reported as 0.84.
For c1ccc(-c2nn(-c3ccccc3)c3nc4ccc(-n5c6ccccc6c6ccccc65)cc4cc23)cc1, the photoluminescence quantum yield (in C1CCCCC1) was 0.88, the photoluminescence quantum yield (in C1CCOC1) was 0.81 and the photoluminescence quantum yield (in CC#N) was 0.72. It also gave a photoluminescence quantum yield (in CC(C)=O) of 0.72, a photoluminescence quantum yield (in CCCCCl) of 0.88 and a photoluminescence quantum yield (in CCCCOCCCC) of 0.7. For the same molecule, the photoluminescence quantum yield (in CN(C)C=O) was 0.76.
COc1ccc(-c2cc(-c3ccc(N(C)C)cc3)nc(-c3ccccc3)n2)cc1 showed a photoluminescence quantum yield (in ClC(Cl)Cl) of 0.49.
COc1ccc(-c2nc(-c3ccc(C(=O)O)cc3)[nH]c2-c2ccc(OC)cc2)cc1 gave a photoluminescence quantum yield (in CO) of 0.42.
Molecule CCCCCCCCn1c2cc(/C=C/c3ccc(N(c4ccccc4)c4ccccc4)cc3)ccc2c2cc3c(cc21)c1ccc(/C=C/c2ccc(N(c4ccccc4)c4ccccc4)cc2)cc1n3CCCCCCCC has a photoluminescence quantum yield (in Cc1ccccc1) of 0.62.
Molecule CCOC(=O)c1c2c3c(ccc(Br)c3c3cc4ccccc4cc13)N(C)C2=O has a photoluminescence quantum yield (in CC#N) of 0.45.
With N#Cc1cc(-n2c3ccccc3c3cccnc32)c(-n2c3ccccc3c3cccnc32)cc1C#N the photoluminescence quantum yield (in c1cc(-n2c3ccccc3c3ccccc32)cc(-n2c3ccccc3c3ccccc32)c1) was 0.37.
For CCCC1=Cc2nc1ccc1[nH]c(cc1CCC)c1nc(c(NC(C)=O)cc3[nH]c2cc3CCC)C(CCC)=C1, the photoluminescence quantum yield (in Cc1ccccc1) was 0.1.
